Results: patent US20260234161A1, “RIFABUTIN ANALOGS FOR THE TREATMENT OF BACTERIAL DISEASES” (BIOVERSYS AG, priority 2023, published 2026)
Converted amounts (≈) assume the structure as drawn. Like-named read-outs stand apart in the source and are kept apart here.

How the values were obtained:
Format in all cases: cell-based
[1] = system: M. abscessus (ATCC 19977); test: MIC by broth microdilution, M. abscessus in cation adjusted Mueller Hinton broth; conditions: Mycobacteroides abscessus, ATCC19977, 96 h, read-out: MIC M. abscessus MH
Experimental: (§1) MIC values were determined by broth microdilution method according to the CLSI guidelines with the following exceptions: MIC against A. baumannii was performed in RPMI medium supplemented with 10% FCS and MIC against M. abscessus was performed in Middlebrook 7H9 broth supplemented with Middlebrook ADC growth supplement (10%; see column “M. abscessus 7H9”). MIC forM abscessus was determined a second time in standard cation adjusted Mueller Hinton broth without growth supplement (see colum “M. abscessus MH”). All other MIC were performed in standard cation adjusted Mueller Hinton broth, supplemented with Middlebrook ADC growth supplement (5%) for the slow growing mycobacteria (M. xenopi, M. kansasii and M. avium).
(§2) The following procedure applies to all species tested, except forM xenopi. From a fresh culture plate (from overnight to several days depending on the bacteria), cells were resuspended in 0.9% (w/v) saline solution and bacterial inoculum was prepared in the respective testing medium with 5×10^5 CFU/mL. For M. xenopi, the inoculum was prepared from a fresh liquid culture (7H9+ADC). The appropriate volumes of a 10 mg/mL compound solution were directly dispensed in the 96-well assay plate using a digital dispenser to create two-fold dilution series from 32 to 0.002 μg/mL final concentration for A. baumannii and S. aureus; from 16 to 0.016 μg/mL for M. abscessus and M. avium; and from 1 to 6×10^−5 μg/mL for M. kansasii and M. xenopi. 100 μL of bacterial suspension was finally added to the compounds. Plates were covered and incubated without shaking at 35° C. for 20 hours for A. baumanii and S. aureus; at 30° C. for 4 days for M. abscessus; and at 37° C. for 7 days (at least) for M. kansasii (covered with aluminum foil to avoid light exposure), M. avium and M. xenopi. Every experiment contained an antibiotic as quality control. MIC was determined visually as the lowest concentration of a compound that prevents visible growth of the bacteria.
(§3) The in vitro activity of compounds described herein was determined against S. aureus (UAMS-1625 strain), A. baumannii (HUMC1 strain), M. abscessus (ATCC 19977), M. kansasii (ATCC 12478), M. avium (ATCC 25291), and M. xenopi (ATCC 19250).

[2] = system: M. kansasii (ATCC 12478); test: MIC by broth microdilution, M. kansasii; conditions: Mycobacterium kansasii, ATCC12478, 168 h, cation adjusted Mueller Hinton broth + ADC (5%), 37° C., 7 days (at least)
Experimental: as §1, §2, §3

[3] = system: A. baumannii (HUMC1 strain); test: MIC by broth microdilution, A. baumannii (RPMI + 10% FCS); conditions: Acinetobacter baumannii, read-out: MIC A. baumannii
Experimental: as §1, §2, §3

[4] = system: M. xenopi (ATCC 19250); test: MIC by broth microdilution, M. xenopi; conditions: Mycobacterium xenopi, ATCC19250, 168 h, cation adjusted Mueller Hinton broth + ADC (5%), 37° C., 7 days (at least)
Experimental: as §1, §2, §3

[5] = system: S. aureus (UAMS-1625 strain); test: MIC by broth microdilution, S. aureus; conditions: Staphylococcus aureus, 20 h, read-out: MIC S. aureus
Experimental: as §1, §2, §3

[6] = system: M. avium (ATCC 25291); test: MIC by broth microdilution, M. avium; conditions: Mycobacterium avium, ATCC25291, 168 h, cation adjusted Mueller Hinton broth + ADC (5%), 37° C., 7 days (at least)
Experimental: as §1, §2, §3

[7] = system: M. abscessus (ATCC 19977); test: MIC by broth microdilution, M. abscessus in Middlebrook 7H9 broth + ADC; conditions: Mycobacteroides abscessus, ATCC19977, 96 h, read-out: MIC M. abscessus 7H9
Experimental: as §1, §2, §3

[8] = ATCC 19977, cation adjusted Mueller Hinton broth without growth supplement, 30° C., 4 days
[9] = HUMC1 strain, RPMI medium + 10% FCS, 35° C., 20 hours
[10] = ATCC 19977, Middlebrook 7H9 broth + ADC growth supplement (10%), 30° C., 4 days

Row | SMILES | MIC [1, 8] [µg/mL] | MIC [2] [µg/mL] | MIC [3, 9] [µg/mL] | MIC [4] [µg/mL] | MIC [5] [µg/mL] | MIC [6] [µg/mL] | MIC [7, 10] [µg/mL] | MIC [1] [µg/mL] | MIC ([3]; 20 h) [µg/mL] | MIC [7] [µg/mL]
1 | CO[C@H]1/C=C/O[C@@]2(C)Oc3c(C)c(O)c4c(c3C2=O)C2=NC3(CCN(CC(C)C)CC3)NC2=C(NC(=O)/C(C)=C\C=C\[C@H](C)[C@H](O)[C@@H](C)[C@@H](O)[C@@H](C)[C@H](OC(=O)N2CCC3(CCN(CC5CCCCC5)CC3)CC2)[C@@H]1C)C4=O [Compound 72] | 0.25 (≈ 0.231 µM) | 0.0004 | 0.06 | 0.008 | 0.25 (≈ 0.231 µM) | 0.03 |  |  |  | 
2 | CO[C@H]1/C=C/O[C@@]2(C)Oc3c(C)c(O)c4c(c3C2=O)C2=NC3(CCN(CC(C)C)CC3)NC2=C(NC(=O)/C(C)=C\C=C\[C@H](C)[C@H](O)[C@@H](C)[C@@H](O)[C@@H](C)[C@H](OC(=O)N2CCC3(CCN(C)CC3)CC2)[C@@H]1C)C4=O [Compound 21] | 2 (≈ 2 µM) | 0.125 | ≤ 0.016 | 0.25 | 0.06 (≈ 0.06 µM) | 0.5 |  |  |  | 
3 | CO[C@H]1/C=C/O[C@@]2(C)Oc3c(C)c(O)c4c(c3C2=O)C2=NC3(CCN(CC(C)C)CC3)NC2=C(NC(=O)/C(C)=C\C=C\[C@H](C)[C@H](O)[C@@H](C)[C@@H](O)[C@@H](C)[C@H](OC(=O)N2CCC(N(C)C)CC2)[C@@H]1C)C4=O [Compound 3] | 4 (≈ 4.17 µM) |  | ≤ 0.002 |  | 0.03 (≈ 0.0313 µM) |  | 0.5 |  |  | 
4 | CCCCN1CCC(NC(=O)O[C@H]2[C@H](C)[C@H](O)[C@H](C)[C@@H](O)[C@@H](C)/C=C/C=C(/C)C(=O)NC3=C4NC5(CCN(CC(C)C)CC5)N=C4c4c(c(O)c(C)c5c4C(=O)[C@@](C)(O/C=C/[C@H](OC)[C@H]2C)O5)C3=O)CC1 [Compound 30] | 0.5 (≈ 0.506 µM) | 0.016 | ≤ 0.016 | 0.06 | 0.06 (≈ 0.0608 µM) | 0.125 |  |  |  | 
5 | CO[C@H]1/C=C/O[C@@]2(C)Oc3c(C)c(O)c4c(c3C2=O)C2=NC3(CCN(CC(C)C)CC3)NC2=C(NC(=O)/C(C)=C\C=C\[C@H](C)[C@H](O)[C@@H](C)[C@@H](O)[C@@H](C)[C@H](OC(=O)N2CCN(C3CCCCC3)CC2)[C@@H]1C)C4=O [Compound 10] | 0.06 (≈ 0.06 µM) | 0.0002 | 0.06 | 0.002 | 0.25 (≈ 0.25 µM) | 0.06 | 0.06 |  |  | 
6 | CO[C@H]1/C=C/O[C@@]2(C)Oc3c(C)c(O)c4c(c3C2=O)C2=NC3(CCN(CC(C)C)CC3)NC2=C(NC(=O)/C(C)=C\C=C\[C@H](C)[C@H](O)[C@@H](C)[C@@H](O)[C@@H](C)[C@H](OC(=O)N2CCN(c3ccccn3)CC2)[C@@H]1C)C4=O [Compound 8] | 0.5 (≈ 0.503 µM) | 0.0005 | 0.25 | 0.008 | 0.25 (≈ 0.251 µM) | 0.25 | 0.125 |  |  | 
7 | CO[C@H]1/C=C/O[C@@]2(C)Oc3c(C)c(O)c4c(c3C2=O)C2=NC3(CCN(CC(C)C)CC3)NC2=C(NC(=O)/C(C)=C\C=C\[C@H](C)[C@H](O)[C@@H](C)[C@@H](O)[C@@H](C)[C@H](OC(=O)NC2CCN(C3CCCCC3)CC2)[C@@H]1C)C4=O [Compound 77] | 1 (≈ 0.987 µM) | 0.03 | ≤ 0.016 | 0.06 | 0.06 (≈ 0.0592 µM) | 0.25 |  |  |  | 
8 | CO[C@H]1/C=C/O[C@@]2(C)Oc3c(C)c(O)c4c(c3C2=O)C2=NC3(CCN(CC(C)C)CC3)NC2=C(NC(=O)/C(C)=C\C=C\[C@H](C)[C@H](O)[C@@H](C)[C@@H](O)[C@@H](C)[C@H](OC(=O)N2CCN(CCN3CCCCC3)CC2)[C@@H]1C)C4=O [Compound 12] | 1 (≈ 0.972 µM) |  | ≤ 0.002 |  | 0.125 (≈ 0.122 µM) |  | 0.5 |  |  | 
9 | CO[C@H]1/C=C/O[C@@]2(C)Oc3c(C)c(O)c4c(c3C2=O)C2=NC3(CCN(CC(C)C)CC3)NC2=C(NC(=O)/C(C)=C\C=C\[C@H](C)[C@H](O)[C@@H](C)[C@@H](O)[C@@H](C)[C@H](OC(=O)N2CCC(NC(C)C)CC2)[C@@H]1C)C4=O [Compound 63] | 2 (≈ 2.06 µM) | 0.125 | ≤ 0.016 | 0.25 | 0.06 (≈ 0.0617 µM) | 0.5 |  |  |  | 
10 | CO[C@H]1/C=C/O[C@@]2(C)Oc3c(C)c(O)c4c(c3C2=O)C2=NC3(CCN(CC(C)C)CC3)NC2=C(NC(=O)/C(C)=C\C=C\[C@H](C)[C@H](O)[C@@H](C)[C@@H](O)[C@@H](C)[C@H](OC(=O)N2CCCN(c3ccc(F)cc3)CC2)[C@@H]1C)C4=O [Compound 16] | 2 (≈ 1.95 µM) |  | 0.03 |  | 0.25 (≈ 0.244 µM) |  | 1 |  |  | 
11 | CO[C@H]1/C=C/O[C@@]2(C)Oc3c(C)c(O)c4c(c3C2=O)C2=NC3(CCN(CC(C)C)CC3)NC2=C(NC(=O)/C(C)=C\C=C\[C@H](C)[C@H](O)[C@@H](C)[C@@H](O)[C@@H](C)[C@H](OC(=O)N2C[C@H]3CN(CC5CCCCC5)C[C@H]3C2)[C@@H]1C)C4=O [Compound 67] | 0.125 (≈ 0.12 µM) | 0.003 | 0.06 | 0.004 | 1 (≈ 0.962 µM) | 0.016 |  |  |  | 
12 | CO[C@H]1/C=C/O[C@@]2(C)Oc3c(C)c(O)c4c(c3C2=O)C2=NC3(CCN(CC(C)C)CC3)NC2=C(NC(=O)/C(C)=C\C=C\[C@H](C)[C@H](O)[C@@H](C)[C@@H](O)[C@@H](C)[C@H](OC(=O)N2CCCN(c3ccccn3)CC2)[C@@H]1C)C4=O [Compound 15] | 1 (≈ 0.992 µM) |  | 0.008 |  | 0.06 (≈ 0.0595 µM) |  | 0.5 |  |  | 
13 | CO[C@H]1/C=C/O[C@@]2(C)Oc3c(C)c(O)c4c(c3C2=O)C2=NC3(CCN(CC(C)C)CC3)NC2=C(NC(=O)/C(C)=C\C=C\[C@H](C)[C@H](O)[C@@H](C)[C@@H](O)[C@@H](C)[C@H](OC(=O)N2CCN(CCN3CCOCC3)CC2)[C@@H]1C)C4=O [Compound 13] | 0.5 (≈ 0.485 µM) |  | ≤ 0.002 |  | 0.06 (≈ 0.0582 µM) |  | 0.5 |  |  | 
14 | CO[C@H]1/C=C/O[C@@]2(C)Oc3c(C)c(O)c4c(c3C2=O)C2=NC3(CCN(CC(C)C)CC3)NC2=C(NC(=O)/C(C)=C\C=C\[C@H](C)[C@H](O)[C@@H](C)[C@@H](O)[C@@H](C)[C@H](OC(=O)N2CCN(Cc3ccccc3)CC2)[C@@H]1C)C4=O [Compound 17] |  |  |  |  | 0.25 (≈ 0.248 µM) |  |  | 1 (≈ 0.993 µM) | 0.125 | 0.125
15 | CO[C@H]1/C=C/O[C@@]2(C)Oc3c(C)c(O)c4c(c3C2=O)C2=NC3(CCN(CC(C)C)CC3)NC2=C(NC(=O)/C(C)=C\C=C\[C@H](C)[C@H](O)[C@@H](C)[C@@H](O)[C@@H](C)[C@H](OC(=O)N2CCN(C)CC2)[C@@H]1C)C4=O [Compound 6] | 4 (≈ 4.3 µM) |  | 0.06 |  | 0.06 (≈ 0.0644 µM) |  | 1 |  |  | 
16 | CO[C@H]1/C=C/O[C@@]2(C)Oc3c(C)c(O)c4c(c3C2=O)C2=NC3(CCN(CC(C)C)CC3)NC2=C(NC(=O)/C(C)=C\C=C\[C@H](C)[C@H](O)[C@@H](C)[C@@H](O)[C@@H](C)[C@H](OC(=O)N2CCN(C3CCN(C)CC3)CC2)[C@@H]1C)C4=O [Compound 11] | 4 (≈ 3.94 µM) |  | ≤ 0.002 |  | 0.125 (≈ 0.123 µM) |  | 0.5 |  |  | 
17 | CCCCN1CCN(C(=O)O[C@H]2[C@H](C)[C@H](O)[C@H](C)[C@@H](O)[C@@H](C)/C=C/C=C(/C)C(=O)NC3=C4NC5(CCN(CC(C)C)CC5)N=C4c4c(c(O)c(C)c5c4C(=O)[C@@](C)(O/C=C/[C@H](OC)[C@H]2C)O5)C3=O)CC1 [Compound 50] | 0.25 (≈ 0.257 µM) | 0.008 | 0.03 | 0.008 | 0.125 (≈ 0.128 µM) | 0.125 |  |  |  | 
18 | CO[C@H]1/C=C/O[C@@]2(C)Oc3c(C)c(O)c4c(c3C2=O)C2=NC3(CCN(CC(C)C)CC3)NC2=C(NC(=O)/C(C)=C\C=C\[C@H](C)[C@H](O)[C@@H](C)[C@@H](O)[C@@H](C)[C@H](OC(=O)N2CCN(CC3CC3)CC2)[C@@H]1C)C4=O [Compound 56] | 0.25 (≈ 0.257 µM) | 0.004 | ≤ 0.016 | 0.008 | 0.125 (≈ 0.129 µM) | 0.06 |  |  |  | 
